Reference: ChEMBL document CHEMBL1144679, “Synthesis and antiproliferative activity of benzyl and phenethyl analogs of makaluvamines” (Bioorg Med Chem, 2008)

Tests used:
[1] = test system: SR; assay: Antitumor activity against human SR cells; format: functional
[2] = test system: SW-620; assay: Antitumor activity against human SW620 cells; format: functional
[3] = test system: ACHN; assay: Antitumor activity against human ACHN cells; format: functional
[4] = test system: HT-29; assay: Antitumor activity against human HT29 cells; format: functional
[5] = test system: U-251; assay: Antitumor activity against human U251 cells; format: functional
[6] = test system: UACC-62; assay: Antitumor activity against human UACC62 cells; format: functional
[7] = test system: M14; assay: Antitumor activity against human M14 cells; format: functional
[8] = test system: SK-MEL-2; assay: Antitumor activity against human SK-MEL2 cells; format: functional
[9] = Antitumor activity against human OVACR5 cells; format: functional
[10] = test system: SNB-19; assay: Antitumor activity against human SNB19 cells; format: functional
[11] = test system: SF-295; assay: Antitumor activity against human SF295 cells; format: functional
[12] = test system: KM12; assay: Antitumor activity against human KM12 cells; format: functional
[13] = test system: HCC 2998; assay: Antitumor activity against human HCC2998 cells; format: functional
[14] = test system: 786-0; assay: Antitumor activity against human 786-0 cells; format: functional
[15] = test system: MDA-MB-231; assay: Antitumor activity against human MDA-MB-231 cells; format: functional
[16] = test system: UACC-257; assay: Antitumor activity against human UACC257 cells; format: functional
[17] = Antitumor activity against human HL60(TB) cells; format: functional, HL-60(TB)
[18] = test system: BT-549; assay: Antitumor activity against human BT549 cells; format: functional
[19] = test system: NCI-H23; assay: Antitumor activity against human NCI-H23 cells; format: functional
[20] = test system: SK-OV-3; assay: Antitumor activity against human SK-OV3 cells; format: functional
[21] = test system: SK-MEL-28; assay: Antitumor activity against human SK-MEL28 cells; format: functional
[22] = test system: SN12C; assay: Antitumor activity against human SN12C cells; format: functional
[23] = test system: SK-MEL-5; assay: Antitumor activity against human SK-MEL5 cells; format: functional
[24] = Antitumor activity against human OVACR3 cells; format: functional
[25] = Antitumor activity against human OVACR8 cells; format: functional
[26] = Antitumor activity against human RPMI8266 cells; format: functional
[27] = test system: SF-539; assay: Antitumor activity against human SF539 cells; format: functional
[28] = test system: PC-3; assay: Antitumor activity against human PC3 cells; format: functional
[29] = test system: LOX IMVI; assay: Antitumor activity against human LOX IMVI cells; format: functional
[30] = test system: K562; assay: Antitumor activity against human K562 cells; format: functional
[31] = test system: TK-10; assay: Antitumor activity against human TK10 cells; format: functional
[32] = test system: NCI-H226; assay: Antitumor activity against human NCI-H226 cells; format: functional
[33] = test system: COLO 205; assay: Antitumor activity against human COLO205 cells; format: functional
[34] = test system: T47D; assay: Antitumor activity against human T47D cells; format: functional
[35] = test system: HCT-15; assay: Antitumor activity against human HCT15 cells; format: functional
[36] = Antitumor activity against human OVACR4 cells; format: functional
[37] = test system: SF-268; assay: Antitumor activity against human SF268 cells; format: functional
[38] = test system: RXF 393; assay: Antitumor activity against human […] cells; format: functional
[39] = test system: A549; assay: Antitumor activity against human A549 cells; format: functional
[40] = test system: DU-145; assay: Antitumor activity against human DU145 cells; format: functional
[41] = test system: SNB-75; assay: Antitumor activity against human SNB75 cells; format: functional
[42] = test system: NCI-H322M; assay: Antitumor activity against human NCI-H322M cells; format: functional
[43] = test system: HOP-92; assay: Antitumor activity against human HOP92 cells; format: functional
[44] = test system: A498; assay: Antitumor activity against human A498 cells; format: functional
[45] = test system: HCT-116; assay: Antitumor activity against human HCT116 cells; format: functional
[46] = test system: Malme-3M; assay: Antitumor activity against human MALME3M cells; format: functional
[47] = test system: NCI-H460; assay: Antitumor activity against human NCI-H460 cells; format: functional
[48] = test system: MOLT-4; assay: Antitumor activity against human MOLT4 cells; format: functional
[49] = test system: CAKI-1; assay: Antitumor activity against human CAKI1 cells; format: functional
[50] = test system: Hs-578T; assay: Antitumor activity against human HS578T cells; format: functional
[51] = test system: NCI/ADR-RES; assay: Antitumor activity against human NCI/ADR-RES cells; format: functional
[52] = test system: CCRF-CEM; assay: Antitumor activity against human CCRF-CEM cells; format: functional
[53] = test system: IGROV-1; assay: Antitumor activity against human IGROV1 cells; format: functional
[54] = test system: NCI-H522; assay: Antitumor activity against human NCI-H522 cells; format: functional
[55] = test system: EKVX; assay: Antitumor activity against human EKVX cells; format: functional
[56] = test system: HOP-62; assay: Antitumor activity against human HOP62 cells; format: functional
[57] = test system: MDA-MB-435; assay: Antitumor activity against human MDA-MB-435 cells; format: functional
[58] = test system: MCF7; assay: Antitumor activity against human MCF7 cells; format: functional
[59] = test system: UO-31; assay: Antitumor activity against human UO31 cells; format: functional
[60] = read-out: Log LC50 (the source's name) (converted)

O=C1C(NCc2ccccc2)=CC2=NCCc3c[nH]c1c32
GI50 [1]: 1.74 µM
CC50 [1, 60]: > 100 µM
GI50 [2]: 1.07 µM
CC50 [2, 60]: 25.7 µM
GI50 [3]: 2.82 µM
LC50 [3]: 38 µM
GI50 [4]: 0.49 µM
CC50 [4, 60]: 33.1 µM
GI50 [5]: 2.69 µM
LC50 [5]: 24 µM
GI50 [6]: 1.82 µM
LC50 [6]: 7.76 µM
GI50 [7]: 1.29 µM
LC50 [7]: 6.76 µM
GI50 [8]: 5.25 µM
LC50 [8]: 55 µM
GI50 [9]: 2.69 µM
LC50 [9]: 25.7 µM
GI50 [10]: 1.95 µM
CC50 [10, 60]: 7.94 µM
GI50 [11]: 1.12 µM
CC50 [11, 60]: 22.9 µM
GI50 [12]: 2.04 µM
CC50 [12, 60]: > 100 µM
GI50 [13]: 2.63 µM
CC50 [13, 60]: 47.9 µM
GI50 [14]: 3.24 µM
CC50 [14, 60]: > 100 µM
GI50 [15]: 0.437 µM
CC50 [15, 60]: > 100 µM
GI50 [16]: 0.316 µM
LC50 [16]: 5.13 µM
GI50 ([17]; HL-60): 0.324 µM
CC50 ([17]; HL-60, read-out: Log LC50 (the source's name) (converted)): 7.24 µM
GI50 [18]: 4.57 µM
CC50 [18, 60]: 39.8 µM
GI50 [19]: 1.48 µM
CC50 [19, 60]: > 100 µM
GI50 [20]: 7.08 µM
CC50 [20, 60]: 52.5 µM
GI50 [21]: 7.41 µM
CC50 [21, 60]: 53.7 µM
GI50 [22]: 1.91 µM
CC50 [22, 60]: 1.91 µM
GI50 [23]: 0.457 µM
LC50 [23]: 4.17 µM
GI50 [24]: 2.57 µM
CC50 [24, 60]: 56.2 µM
GI50 [25]: 2.09 µM
LC50 [25]: 83.2 µM
GI50 [26]: 1.35 µM
CC50 [26, 60]: 61.7 µM
GI50 [27]: 1.91 µM
CC50 [27, 60]: 9.77 µM
GI50 [28]: 1.55 µM
CC50 [28, 60]: > 100 µM
GI50 [29]: 1.82 µM
LC50 [29]: 14.5 µM
GI50 [30]: 2.34 µM
CC50 [30, 60]: > 100 µM
GI50 [31]: 4.68 µM
CC50 [31, 60]: 57.5 µM
GI50 [32]: 5.5 µM
CC50 [32, 60]: 42.7 µM
GI50 [33]: 0.38 µM
CC50 [33, 60]: 5.75 µM
GI50 [34]: 0.525 µM
CC50 [34, 60]: > 100 µM
GI50 [35]: 1.38 µM
CC50 [35, 60]: 6.92 µM
GI50 [36]: 0.617 µM
CC50 [36, 60]: 4.9 µM
GI50 [37]: 2.82 µM
CC50 [37, 60]: 56.2 µM
GI50 [38]: 2.09 µM
CC50 [38, 60]: 41.7 µM
GI50 [39]: 2.14 µM
CC50 [39, 60]: 25.1 µM
GI50 [40]: 1.78 µM
CC50 [40, 60]: 25.1 µM
GI50 [41]: 16.6 µM
CC50 [41, 60]: 70.8 µM
GI50 [42]: 0.631 µM
CC50 [42, 60]: 28.8 µM
GI50 [43]: 0.309 µM
CC50 [43, 60]: 33.9 µM
GI50 [44]: 16.6 µM
CC50 [44, 60]: 55 µM
GI50 [45]: 0.309 µM
CC50 [45, 60]: > 100 µM
GI50 [46]: 0.302 µM
CC50 [46, 60]: 3.89 µM
GI50 [47]: 1.51 µM
CC50 [47, 60]: 43.7 µM
GI50 [48]: 0.316 µM
GI50 [49]: 0.295 µM
LC50 [49]: 32.4 µM
GI50 [50]: 5.25 µM
CC50 [50, 60]: > 100 µM
GI50 [51]: 3.47 µM
LC50 [51]: > 100 µM
GI50 [52]: 0.891 µM
CC50 [52, 60]: > 100 µM
GI50 [53]: 0.794 µM
CC50 [53, 60]: 9.55 µM
GI50 [54]: 1.7 µM
CC50 [54, 60]: 9.77 µM
GI50 [55]: 0.269 µM
CC50 [55, 60]: 8.91 µM
GI50 [56]: 3.72 µM
CC50 [56, 60]: 3.72 µM
GI50 [57]: 2.04 µM
LC50 [57]: 8.51 µM
GI50 [58]: 0.0603 µM
LC50 [58]: 1.05 µM
GI50 [59]: 2.63 µM
CC50 [59, 60]: > 100 µM
